For 14 molecules, EC50 and Cmax results are on record in patent publication US11236055B2 (Venenum Biodesign, LLC, priority 2016, dated 2022).

For data set [1], the system named is Mouse STC-1 cells. In words: STC-1 GLP-1 assay. Type of data set: cell-based. The conditions noted are these: GLP-1 secretion, 2 h, coded A-C, read-out: Mouse STC-1 HTRF GLP-1 Activity (EC50). Here is the method:
We evaluated Compounds of the present invention for their ability to induce GLP-1 production in mouse intestinal neuroendocrine tumor cells. Mouse STC-1 cells were cultured and maintained in high glucose DMEM (Sigma #5796) supplemented with 15% horse serum, 5% Fetal Bovine Serum (FBS), 1% penicillin/streptomycin, and 2 mM L-alanine L-glutamine (GlutaMax). Two days prior to analysis of GLP-1 secretion cells were harvested using Accutase (Sigma), spun down then resuspended in high glucose DMEM media containing 2 mM L-alanine L-glutamine (GlutaMax), 10% charcoal-dextran stripped FBS, and 50 μg/mL Gentamicin, at a density of 100,000 cells/mL. 100 μL of cell suspension was added to each well of a 96-well Poly-D-Lysine coated culture plate (Sigma; cat #2382493) and was incubated at 37° C. with 5% CO2.
Compounds were initially diluted in 100% DMSO (12-point serial dilution by half logs) in a 96-well plate and then were further diluted 1:500 in Hanks' Balanced Salt Solution (HBSS) containing protease inhibitor cocktail, DPP-IV inhibitor, and 0.1% fatty acid free bovine serum albumin. On the day of the experiment cells were washed once with HBSS. After wash, 100 μL of test compound was added to each well. The plate was incubated at 37° C. with 5% CO2 for 2 h. Supernatants were collected and GLP-1 secretion was measured using the Cisbio™ Active GLP-1 HTRF Assay Kit (Cisbio). Briefly, Anti-GLP-1-d2 conjugate and Anti-GLP-1 Terbium Cryptate conjugate stock solutions were prepared as per kit instructions. The two solutions were pre-mixed and 10 μL were transferred to a 384-well low volume plate (Greiner; cat #784075). 10 μL of collected supernatants were added to wells already containing the conjugate solution. The plate was covered and incubated at room temperature overnight. The plate was read on an Envision™ plate reader (Perkin Elmer).
In Table 34, EC50 values obtained from the STC-1 GLP-1 production assay for compounds of the present invention are summarized.
Background: In TR-FRET formats the signal depends on donor and acceptor labels being close together.

Data set [2] addresses T1, human TGR5 receptor (Homo sapiens, UniProt Q8TDU6).
T1 construct: host or cells: CHO-K1 (hTGR5-CHO cells)
T1 sequence (Q8TDU6 1-330): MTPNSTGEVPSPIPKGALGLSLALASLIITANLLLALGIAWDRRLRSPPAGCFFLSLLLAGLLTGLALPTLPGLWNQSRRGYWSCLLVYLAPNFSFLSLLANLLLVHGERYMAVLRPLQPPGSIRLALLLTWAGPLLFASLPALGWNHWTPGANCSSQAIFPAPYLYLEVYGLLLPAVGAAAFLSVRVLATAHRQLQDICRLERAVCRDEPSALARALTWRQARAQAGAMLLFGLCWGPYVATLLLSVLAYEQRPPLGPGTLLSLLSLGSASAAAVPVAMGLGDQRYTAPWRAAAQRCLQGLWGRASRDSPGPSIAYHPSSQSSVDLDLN
In words: Human TGR5 cAMP production assay. Type of data set: cell-based. The conditions noted are these: human TGR5, luminescent cAMP assay; coded A-D; read-out: Human TGR5 Lum. cAMP Activity (EC50). In short, it runs like this: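 Intracellular cAMP read by luminescent enzyme-complementation (XS+) after overnight development, following 1 h room-temperature compound treatment of hTGR5-CHO-K1 cells in IBMX plus anti-cAMP antibody. Compounds tested as half-log dilution series; EC50 derived.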
Background: Cyclic AMP is a second messenger, typically raised through Gs and lowered through Gi signalling.

Data set [3] addresses T2, mouse TGR5 receptor (Mus musculus, UniProt Q80SS6).
T2 construct: expressed in transfected cells; host or cells: HEK293-EBNA (293 c18, ATCC CRL10852), Hygromycin B selection
T2 sequence (Q80SS6 1-329): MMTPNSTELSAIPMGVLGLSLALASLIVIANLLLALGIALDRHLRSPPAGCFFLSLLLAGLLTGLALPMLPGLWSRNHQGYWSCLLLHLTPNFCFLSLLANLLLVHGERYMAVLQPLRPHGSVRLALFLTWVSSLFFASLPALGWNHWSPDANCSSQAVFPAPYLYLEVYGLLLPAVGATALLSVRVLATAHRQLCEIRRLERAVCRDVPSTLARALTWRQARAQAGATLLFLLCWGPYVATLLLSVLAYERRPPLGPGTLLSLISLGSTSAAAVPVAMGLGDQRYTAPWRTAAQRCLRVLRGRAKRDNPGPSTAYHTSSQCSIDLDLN
In words: Mouse TGR5 cAMP production assay (HTRF, Cisbio cAMP HiRange). The note with it: HEK293-EBNA cells overexpressing mouse TGR5, HTRF cAMP HiRange; coded A-D. The class given is cell-based. In short, it runs like this: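 cAMP read by HTRF competition after 1 h room-temperature compound exposure of mouse TGR5-overexpressing HEK293-EBNA cells. Cells were suspended in serum-free DMEM containing 500 μM IBMX; compounds ran as 12-point half-log dilutions in duplicate; EC50 derived.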

Data set [4] has as its target T2, mouse TGR5 receptor. In words: Mouse TGR5 cAMP production assay (luminescent, DiscoveRx cAMP XS+). Type of data set: cell-based. The conditions noted are these: HEK293-EBNA cells overexpressing mouse TGR5, luminescent cAMP XS+; coded A-D; read-out: Mouse TGR5 Lum. cAMP Activity (EC50). Summed up:
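HEK293-EBNA cells stably expressing mouse TGR5 were suspended in serum-free DMEM with 500 μM IBMX and preincubated 20 min with cAMP antibody. They were then exposed to half-log compound dilutions for 1 h at room temperature. cAMP measured by enzyme-fragment complementation luminescence after overnight incubation; EC50 derived.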

A short description of data set [5]: Pharmacokinetic profile in mice. Type of data set: in vivo. The conditions noted are these: mouse; fasted male Hilltop mice, 10 mg/kg oral gavage, plasma, mean of three mice. Here is the method: Pharmacokinetic Profile in Mice
In this series of studies, the pharmacokinetic profile characteristics of compounds of the present invention were evaluated. The plasma concentration levels of the compounds were monitored in the blood stream (i.e., plasma) after oral gavage using Cmax, and area under the curve (AUC).
8 week old male Hilltop mice were fasted overnight. Animals were randomized into groups (n=9) by body weight. Mice were dosed with 10 mg/kg compound (in 20% PEG400/80% 0.5% carboxymethylcellulose (medium viscosity)+0.25% Tween-80) at a volume of 10 mL/kg through oral gavage. Blood was collected via orbital bleeding at 0, 0.25, 0.5, 1, 2, and 4 h post-dose, with no one mouse having more than 3 blood draws. Blood was collected in EDTA coated tubes. Samples were stored at −20° C. until analysis.
Quantitation of compound levels in plasma was accomplished by LC-MS/MS analysis. Standard curve and quality control samples were prepared in male CD-1 mouse plasma containing EDTA K^2+ as an anticoagulant at final concentrations ranging from 500 to 0.1 ng/mL. The plasma samples, calibration curve standards, and quality control samples were prepared in an identical method in a 96-well deep plate (1 mL) with a quenching solution (1:1 mixed acetonitrile:methanol containing the internal standard Reserpine @ 400 ng/mL). Low volume samples were supplemented with CD-1 mouse plasma. The plate was mixed on multi-tube votex for 1 min and centrifuged at 4000 rpm for 30 min at 4° C. (Sorvall® Super T21) before LC-MS/MS analysis. LC conditions were developed and optimized based on each compound as needed. The outlet of the column was coupled to AB Sciex 4000 QTrap Mass Spectrometer (AB Sciex, Brugg Switzerland). Detection was carried out using multiple reaction monitoring mode with positive-ion detection focusing. The pharmacokinetic parameters were derived from the plasma-time data and calculated using the standard non-compartmental method with WinNonlin (Pharsight, Mountain View, Calif.) or PK Solver (Comp. Meth. Prog. Biomed. (2010), 99, 306-314).
Values reported are the mean plasma concentration of three mice.

pEC50: −log10 of the molar value. Where only a bound is given, the exact number is not on record here.

Broadly, the pEC50 is the negative decadic logarithm of the EC50, by convention in mol/L. Regarding `CCOC(=O)CCCN(C(C)(C)c1cccc(-c2ccncc2C)c1)S(=O)(=O)c1ccccc1C(F)(F)F` [Compound 14A, Ethyl 4-(N-(2-(3-(3-methylpyridin-4-yl)phenyl)propan-2-yl)-2-(trifluoromethyl)phenylsulfonamido)butanoate], the pEC50 was 6.00 to 7.00 in data set [1], more than 7.00 in data set [2] and 6.00 to 7.00 in data set [3].

On to `CCOc1cnccc1-c1cccc(C(C)(C)NS(=O)(=O)c2ccccc2C(F)(F)F)c1` [Compound 8AC, N-(2-(3-(3-ethoxypyridin-4-yl)phenyl)propan-2-yl)-2-(trifluoromethyl)benzenesulfonamide], for which the pEC50 is 6.00 to 7.00 in data set [1], 6.00 to 7.00 in data set [4] and more than 7.00 in data set [2].

For the molecule `COCCN(C(C)(C)c1cccc(-c2ccncc2C)c1)S(=O)(=O)c1ccccc1C(F)(F)F` [Compound 13AA, N-(2-methoxyethyl)-N-(2-(3-(3-methylpyridin-4-yl)phenyl)propan-2-yl)-2-(trifluoromethyl)benzenesulfonamide], the pEC50 in data set [1] is 6.00 to 7.00; in data set [2], more than 7.00; in data set [3] it was 6.00 to 7.00.

Regarding `CC[C@H](NS(=O)(=O)c1ccccc1C(F)(F)F)c1cccc(-c2ccncc2C)c1` [Compound 5AW, (S)-N-(1-(3-(3-methylpyridin-4-yl)phenyl)propyl)-2-(trifluoromethyl)benzenesulfonamide], the negative-log EC50 (pEC50) is 4.52 to 6.00 in data set [1], more than 7.00 in data set [2] and more than 7.00 in data set [3].

As to `Cc1cnccc1-c1cccc(C2CN(CCCC(=O)NCS(=O)(=O)O)CCN2S(=O)(=O)c2cccc(Cl)c2C)c1` (stereo not drawn) [Compound 53, (4-(4-((3-Chloro-2-methylphenyl)sulfonyl)-3-(3-(3-methylpyridin-4-yl)phenyl)piperazin-1-yl)butanamido)methanesulfonic acid], the pEC50 in data set [1] is 6.00 to 7.00; in data set [2] it was 6.00 to 7.00; in data set [3], more than 7.00.

For `CCOC(=O)C[C@H](NS(=O)(=O)c1ccccc1C(F)(F)F)c1cccc(-c2ccncc2C)c1` [Compound 18A, (S)-ethyl 3-(3-(3-methylpyridin-4-yl)phenyl)-3-(2-(trifluoromethyl)phenylsulfonamido)-propanoate], the pEC50 in data set [1] is 4.52 to 6.00; in data set [2], more than 7.00; in data set [3], more than 7.00.

In the case of `COc1cnccc1-c1cccc(C(C)(C)NS(=O)(=O)c2cccc(Cl)c2Cl)c1` [Compound 2BC], the pEC50 was 4.52 to 6.00 in data set [1], more than 7.00 in data set [2] and more than 7.00 in data set [3].

On to `COC(=O)CN(C(C)(C)c1cccc(-c2ccncc2C)c1)S(=O)(=O)c1ccccc1C(F)(F)F` [Compound 13, Methyl 2-(N-(2-(3-(3-methylpyridin-4-yl)phenyl)propan-2-yl)-2-(trifluoromethyl)phenylsulfonamido)acetate], for which the negative-log EC50 (pEC50) in data set [1] is 4.52 to 6.00; in data set [2], more than 7.00; in data set [3], 6.00 to 7.00.

In general, Cmax refers to the maximum level reached in the sampled fluid or tissue. In turn, `CNC(=O)C[C@H](NS(=O)(=O)c1ccccc1C(F)(F)F)c1cccc(-c2ccncc2C)c1` [Compound 5AZ, (S)-N-methyl-3-(3-(3-methylpyridin-4-yl)phenyl)-3-(2-(trifluoromethyl)phenylsulfonamido)propanamide] had a Cmax in data set [5] of 2330 ng/mL. Besides, the pEC50 in data set [2] and in data set [3] was 6.00 to 7.00 throughout.

Consider `CCc1cnccc1-c1cccc(C2CN(CCCC(=O)O)CCN2S(=O)(=O)c2cccc(Cl)c2C)c1` (stereo not drawn) [Compound 52AA, 4-(4-((3-chloro-2-methylphenyl)sulfonyl)-3-(3-(3-ethylpyridin-4-yl)phenyl)piperazin-1-yl)butanoic acid], for which, in data set [5], the Cmax came out at 647 ng/mL. Further, the pEC50 in data set [2] and in data set [3] was more than 7.00 each time.

For the molecule `COc1cnccc1-c1cccc(C(C)(C)NS(=O)(=O)c2cccc(Cl)c2C)c1` [Compound 2BL], the pEC50 in data set [1] was 6.00 to 7.00; in data set [2], more than 7.00; in data set [3], more than 7.00.

On to `CCc1cnccc1-c1cccc([C@H](C)N(CCCCC(=O)NCCS(=O)(=O)O)S(=O)(=O)c2cccc(Cl)c2C)c1` [Compound 20AS, (S)-2-(5-(3-chloro-N-(1-(3-(3-ethylpyridin-4-yl)phenyl)ethyl)-2-methylphenylsulfonamido)pentanamido)ethanesulfonic acid], for which, in data set [5], the highest concentration (Cmax) is 2.3 ng/mL. For the same molecule, the pEC50 in data set [2] and in data set [3] was more than 7.00 each time.

In data set [5], `Cc1cnccc1-c1cccc([C@H](C)N(CCCC(=O)NCCS(=O)(=O)O)S(=O)(=O)c2cccc(Cl)c2C)c1` [Compound 21AG, (S)-2-(4-(3-chloro-2-methyl-N-(1-(3-(3-methylpyridin-4-yl)phenyl)ethyl)phenylsulfonamido)butanamido)ethanesulfonic acid] registered a Cmax of 14.3 ng/mL. Moreover, the pEC50 in data set [2] and in data set [3] was more than 7.00 each time.

In the case of `Cc1cnccc1-c1cccc(C(NS(=O)(=O)c2ccccc2C(F)(F)F)C2CC2)c1` (racemic) [Compound 5AV, (+/−)N-(cyclopropyl(3-(3-methylpyridin-4-yl)phenyl)-methyl)-2-(trifluoromethyl)benzenesulfonamide], the pEC50 in data set [1] was 4.52 to 6.00; in data set [2], more than 7.00; in data set [3], 6.00 to 7.00.
